# Measurements reported in patent publication US11369589B2, “Modulator of indoleamine 2,3-dioxygenase, preparation method and use thereof” (NANJING CAREPHAR SHENGHUI PHARMACEUTICAL CO., LTD., priority 2018, dated 2022).
# Columns and labels:
# Format in all cases: in vitro ADME
# [1] = In vitro plasma conversion experiment of target compounds (Embodiment 7.5); details: rat, 2 mg/mL (as Epacadostat equivalents)
# Protocol: (§1) Mobile phase: acetonitrile (50% to 80%) and water gradient elution.
# (§2) Flow rate: 1 mL/min at a column temperature of 25° C.
# (§3) Detection wavelength: 254 nm at a sample size of 10 μL.
# The target compounds were dissolved into a DMSO solvent. […] 20 μL of the solution was taken and added into 1.18 mL of fresh rat blank plasma, and incubation was carried out at 37° C. to obtain a sample.
# (§4) 120 μL of the sample was precisely sucked at a specified time point each time. 120 μL of acetonitrile was added. High-speed vortex mixing was performed for 2 min. Centrifugation was performed at 10000 r/min for 15 min. Supernatant was taken and filtered by a 13 mm 0.45 μm filter membrane, and then determination could be performed.
# (§5) Incubation was performed at 37° C. 120 μL of sample was taken at different time points respectively. Sample pretreatment was performed according to the method of 7.3. Determination was performed by an HPLC method. A peak area was recorded, and a drug concentration was calculated.
# According to the method of 7.4, we performed in vitro plasma conversion experiment on the target compounds to test conversion rates of the compounds converted into the Epacadostat at different time points.
# [2] = Original drug Epacadostat plasma stability test (Embodiment 7.4); details: rat plasma, 37° C.
# Protocol: Liquid chromatograph: Waters 2489UV/Visible Detector, Waters 1525BinaryHPLC Pump.
# as §1, §2, §3
# (§6) Under the condition of no mobile phase interference, the Epacadostat retention time was about 20 min.
# as §4
# as §5, with “20 μL of DMSO solution (120 mg/mL) of Epacadostat was taken and added into 1.18 mL of fresh rat blank plasma. Incubation” for “Incubation”
# [3] = Original drug Epacadostat plasma stability test (Embodiment 14, 6.4); details: rat plasma, 37° C.
# Protocol: Liquid chromatograph: Waters 2489UV/Visible Detector, Waters 1525Binary HPLC Pump.
# as §1, §2, §3, §6, §4
# as §5, with “20 μL of DMSO solution (120 mg/mL) of Epacadostat was taken and added into 1.18 mL of fresh rat blank plasma. Incubation” for “Incubation”, “6.3.” for “7.3.”
Conversion rate into Epacadostat ([1]; 0.5 h),Conversion rate into Epacadostat ([1]; 1 h),Conversion rate into Epacadostat ([1]; 2 h),Conversion rate into Epacadostat ([1]; 3 h),Conversion rate into Epacadostat ([1]; 6 h),Conversion rate into Epacadostat ([1]; 12 h),Epacadostat concentration in plasma ([2]; time 1 h),Epacadostat concentration in plasma ([2]; time 3 h),Epacadostat concentration in plasma ([2]; time 6 h),Epacadostat concentration in plasma ([2]; time 24 h),Stability in plasma (in words) ([2]; up to 24 h),Epacadostat concentration in plasma ([3]; time 1 h),Epacadostat concentration in plasma ([3]; time 3 h),Epacadostat concentration in plasma ([3]; time 6 h),Epacadostat concentration in plasma ([3]; time 24 h),Stability in plasma (in words) ([3]; up to 24 h),Structure (SMILES)
31.1%,43.1%,58.3%,70.3%,88.3%,98.3%,–,–,–,–,–,–,–,–,–,–,CCCC(=O)O/N=C(\Nc1ccc(F)c(Br)c1)c1nonc1NCCNS(=O)(=O)N=Cc1ccc(N(C)C)cc1 [II-3]
–,–,–,–,–,–,1.22 mg/mL,1.20 mg/mL,1.24 mg/mL,1.20 mg/mL,can stably exist in the plasma,1.22 mg/mL,1.20 mg/mL,1.24 mg/mL,1.20 mg/mL,can stably exist in the plasma,NS(=O)(=O)NCCNc1nonc1C(=NO)Nc1ccc(F)c(Br)c1 [Epacadostat]
47.2%,49.0%,51.6%,75.2%,89.6%,100%,–,–,–,–,–,–,–,–,–,–,CCCCC(=O)O/N=C(\Nc1ccc(F)c(Br)c1)c1nonc1NCCNS(=O)(=O)N=Cc1ccc(Cl)s1 [II-4]
33.7%,56.3%,77.2%,87.2%,93.8%,100%,–,–,–,–,–,–,–,–,–,–,CC(C)C(=O)O/N=C(\Nc1ccc(F)c(Br)c1)c1nonc1NCCNS(=O)(=O)N=Cc1cccs1 [II-1]
